Here are results for 30 compounds from US20230159453A1 (COCRYSTAL PHARMA, INC., priority 2020, published 2023).

A word on the IC50: it is the concentration that gives 50% inhibition.

The target of the assay is SARS2 protease (Severe acute respiratory syndrome coronavirus 2, UniProt P0DTD1). Nature of the assay: SARS-CoV-2 protease inhibition assay (SARS2 FRET protease assay). The class given is biochemical. The note with it: SARS-CoV-2 protease 25 nM, FRET, peptide substrate 1.3 μM, 30 minutes at 30° C., compounds 20 μM to 1.0 nM; read-out: IC50.

In the case of `Cc1cccc(C(OC(=O)N[C@@H](CC2CCCCC2)C(=O)N[C@H](C=O)C[C@@H]2CCNC2=O)C(C)(C)c2cccc(Cl)c2)c1` (stereo partly drawn) [Compound C136, 2-(3-Chlorophenyl)-2-methyl-1-(m-tolyl) propyl ((S)-3-cyclohexyl-1-oxo-1-(((S)-1-oxo-3-((S)-2-oxopyrrolidin-3-yl)propan-2-yl)amino)propan-2-yl) carbamate], the half-maximal inhibitory concentration (IC50) amounted to 0.45 nM.
The value for `CCOP(=O)(OCC)C(O)[C@H](CCC(=O)N1CCNCc2ccccc21)NC(=O)[C@H](CC1CCCCC1)NC(=O)OCc1cccc(Cl)c1` (stereo partly drawn) [Compound C3] was greater than 200000 nM.
The value for `O=C(N[C@@H](CC1CCCCC1)C(=O)NC(CC1CC2(CCCCC2)NC1=O)C(=O)C(=O)NC1CC1)OC1CCCC1Cc1cccc(Cl)c1` (stereo partly drawn) [Compound C192, 2-(3-Chlorobenzyl)cyclopentyl ((2S)-3-cyclohexyl-1-((4-(cyclopropylamino)-3,4-dioxo-1-(2-oxo-1-azaspiro[4.5]decan-3-yl)butan-2-yl)amino)-1-oxopropan-2-yl)carbamate] was 617 nM; that for `CC(C)C[C@H](NC(=O)OC(c1ccccc1)C(F)(F)c1cccc(Cl)c1)C(=O)N[C@@H](C[C@@H]1CCNC1=O)C(=O)C(=O)NC1CC1` (stereo partly drawn) [Compound C258] was 90 nM; that for `CCOP(=O)(OCC)C(O)[C@H](CCC(=O)N1CCOc2ccccc2C1)NC(=O)[C@H](CC1CCCCC1)NC(=O)N1CCc2ccccc21` (stereo partly drawn) [Compound C21, Diethyl ((2S)-2-((S)-3-cyclohexyl-2-(indoline-1-carboxamido)propanamido)-5-(2,3-dihydrobenzo[f][1,4]oxazepin-4(5H)-yl)-1-hydroxy-5-oxopentyl)phosphonate] was greater than 200000 nM.
As for `CCCC[C@H](NC(=O)OC(c1ccccc1)C(C)(C)c1cccc(Cl)c1)C(=O)N[C@H](C=O)C[C@@H]1CCNC1=O` (stereo partly drawn) [Compound C157, 2-(3-Chlorophenyl)-2-methyl-1-phenylpropyl ((S)-1-oxo-1-(((S)-1-oxo-3-((S)-2-oxopyrrolidin-3-yl)propan-2-yl)amino)hexan-2-yl) carbamate], the IC50 came to 0.1 nM.
Take `CC(C)C[C@H](NC(=O)OC(Cc1ccccc1)c1ccccc1)C(=O)N[C@@H](C[C@@H]1CCNC1=O)C(=O)C(=O)N1CCNCC1` (stereo partly drawn) [Compound C283]: the IC50 was greater than 20000 nM.
Under `O=C[C@H](CCC(=O)NC1(Cc2ccccc2)CC1)NC(=O)[C@H](CC1CCCCC1)NC(=O)OCc1cccc(Cl)c1` [Compound C33, 3-Chlorobenzyl ((S)-1-(((S)-5-((1-benzylcyclopropyl)amino)-1,5-dioxopentan-2-yl)amino)-3-cyclohexyl-1-oxopropan-2-yl)carbamate] stands greater than 200000 nM; under `CC(C)(C)C(=O)N1CCC2(CC1)CC(CC(NC(=O)[C@H](CC1CCCCC1)NC(=O)OC1CCCC1Cc1cccc(Cl)c1)C(=O)C(=O)NC1CC1)C(=O)N2` (stereo partly drawn) [Compound C210, 2-(3-Chlorobenzyl) cyclopentyl ((2S)-3-cyclohexyl-1-((4-(cyclopropylamino)-3,4-dioxo-1-(2-oxo-8-pivaloyl-1,8-diazaspiro[4.5]decan-3-yl)butan-2-yl)amino)-1-oxopropan-2-yl) carbamate], 2650 nM; under `CC(C)C[C@H](NC(=O)OC(c1ccccc1)C(C)(C)c1cccc(Cl)c1)C(=O)N[C@@H](C[C@@H]1CCNC1=O)C(=O)C(=O)N1CCN(C(=O)OC(C)(C)C)CC1` (stereo partly drawn) [Compound C261], 17000 nM.
The value for `CC(C)C[C@H](NC(=O)OCC(C)(C)c1cccc(Cl)c1)C(=O)N[C@@H](C[C@@H]1CCNC1=O)C(=O)C(N)=O` [Compound C90, 2-(3-chlorophenyl)-2-methylpropyl ((S)-1-(((S)-4-amino-3,4-dioxo-1-((S)-2-oxopyrrolidin-3-yl)butan-2-yl)amino)-4-methyl-1-oxopentan-2-yl)carbamate] was 100 nM; that for `CC(C)(c1cccc(Cl)c1)C(OC(=O)N[C@@H](Cc1ccccc1)C(=O)N[C@@H](C[C@@H]1CCNC1=O)C(=O)C(=O)NC1CC1)c1ccccc1` (stereo partly drawn) [Compound C284] was 1570 nM.
The value for `O=C(N[C@@H](CC1CCCCC1)C(=O)N[C@@H](C[C@@H]1CCNC1=O)C(=O)C(=O)NC1CC1)O[C@@H]1CCC[C@@H]1Cc1cccc(Cl)c1` [Compound C265] was 840 nM; that for `O=C(N[C@@H](CC1CCCCC1)C(=O)N[C@@H](C[C@@H]1CCNC1=O)C(=O)C(=O)NC1CC1)O[C@H]1CCC[C@@H]1Cc1cccc(Cl)c1` [Compound C264] was 680 nM.
`CC(C)(C1CCCCC1)C(NC(=O)OCc1ccccc1)C(=O)N[C@H](C=O)C[C@@H]1CCNC1=O` (stereo partly drawn) [Compound C140, Benzyl (3-cyclohexyl-3-methyl-1-oxo-1-(((S)-1-oxo-3-((S)-2-oxopyrrolidin-3-yl)propan-2-yl)amino)butan-2-yl)carbamate]: the IC50 came out at 405 nM.
The value for `CC1(C)CC(C[C@H](NC(=O)[C@H](CC2CCCCC2)NC(=O)OC(Cc2cccc(Cl)c2)c2cccc(Cl)c2)C(=O)C(=O)NC2CC2)C(=O)N1` (stereo partly drawn) [Compound C172, 1,2-Bis (3-Chlorophenyl) ethyl ((2S)-3-cyclohexyl-1-((4-(cyclopropylamino)-1-(5,5-dimethyl-2-oxopyrrolidin-3-yl)-3,4-dioxobutan-2-yl)amino)-1-oxopropan-2-yl)carbamate] was 1670 nM; that for `CCOP(=O)(OCC)C(O)C(CC1CC2(CCN(C(C)=O)CC2)NC1=O)NC(=O)[C@H](CC(C)C)NC(=O)c1cc2ccccc2[nH]1` (stereo partly drawn) [Compound C94, Diethyl (2-((S)-2-(1H-indole-2-carboxamido)-4-methylpentanamido)-3-(8-acetyl-2-oxo-1,8-diazaspiro[4.5]decan-3-yl)-1-hydroxypropyl)phosphonate] was 2600 nM; that for `CC(C)(c1cccc(Cl)c1)C(OC(=O)N[C@@H](Cc1ccccc1)C(=O)N[C@H](C=O)C[C@@H]1CCNC1=O)c1ccccc1` (stereo partly drawn) [Compound C257] was greater than 20000 nM.
The value for `CC1(C)CC(CC(C=O)NC(=O)[C@H](CC2CCCCC2)NC(=O)OCc2cccc(Cl)c2)C(=O)N1` (stereo partly drawn) [Compound C198, 3-chlorobenzyl ((2S)-3-cyclohexyl-1-((1-(5,5-dimethyl-2-oxopyrrolidin-3-yl)-3-oxopropan-2-yl)amino)-1-oxopropan-2-yl)carbamate] was 4.7 nM.
The value for `CCOP(=O)(OCC)C(O)[C@H](CC1CCN(CCc2ccccc2)C1=O)NC(=O)[C@H](CC1CCCCC1)NC(=O)OCc1cccc(Cl)c1` (stereo partly drawn) [Compound C8, 3-Chlorobenzyl ((2S)-3-cyclohexyl-1-((1-(diethoxyphosphaneyl)-1-hydroxy-3-(2-oxo-1-phenethylpyrrolidin-3-yl)propan-2-yl)amino)-1-oxopropan-2-yl) carbamate] was greater than 200000 nM; that for `CC(C)C[C@H](NC(=O)OC1(Cc2ccccc2)CCC1)C(=O)N[C@@H](C[C@@H]1CCNC1=O)C(=O)C(N)=O` [Compound C73, 1-Benzylcyclobutyl ((S)-1-(((S)-4-amino-3,4-dioxo-1-((S)-2-oxopyrrolidin-3-yl)butan-2-yl)amino)-4-methyl-1-oxopentan-2-yl)carbamate] was 600 nM.
Regarding `CCCCCOC(=O)N[C@@H](CC(C)C)C(=O)NC(C)(C=O)CC1CCNC1=O` (stereo partly drawn) [Compound C65, Pentyl ((2S)-4-methyl-1-((2-methyl-1-oxo-3-(2-oxopyrrolidin-3-yl)propan-2-yl)amino)-1-oxopentan-2-yl) carbamate], the IC50 amounted to 26900 nM.
Under `CCCC[C@H](NC(=O)OC(c1ccccc1)C(C)(C)c1cccc(Cl)c1)C(=O)N[C@@H](CC1CCNC1=O)C(=O)C(=O)NC1CC1` (stereo partly drawn) [Compound C174, 2-(3-Chlorophenyl)-2-methyl-1-phenylpropyl ((S)-1-(((S)-4-(cyclopropylamino)-3,4-dioxo-1-((S)-2-oxopyrrolidin-3-yl)butan-2-yl)amino)-1-oxohexan-2-yl) carbamate] stands 8.2 nM; under `CC1(C)CC(CC(NC(=O)[C@H](CC2CCCCC2)NC(=O)OC(c2ccc(Cl)cc2)C(C)(C)c2cccc(Cl)c2)C(=O)C(=O)NC2CC2)C(=O)N1` (stereo partly drawn) [Compound C245], 1980 nM; under `O=C(N[C@@H](CC1CCCCC1)C(=O)N[C@@H](C[C@@H]1CCNC1=O)C(=O)C(=O)NC1CC1)OCc1cccc(Cl)c1` [Compound C154, 3-Chlorobenzyl ((S)-3-cyclohexyl-1-(((S)-4-(cyclopropylamino)-3,4-dioxo-1-((S)-2-oxopyrrolidin-3-yl)butan-2-yl)amino)-1-oxopropan-2-yl)carbamate], 1480 nM.
The value for `O=C(O)C(=O)C(CC1CC2(CCCCC2)NC1=O)NC(=O)[C@H](CC1CCCCC1)NC(=O)c1cc2ccccc2[nH]1` (stereo partly drawn) [Compound C228, 3-((S)-3-Cyclohexyl-2-(1H-indole-2-carboxamido)propanamido)-2-oxo-4-(2-oxo-1-azaspiro[4.5]decan-3-yl)butanoic acid] was 120 nM.
Under `CC(C)C[C@H](NC(=O)OC1(Cc2cccc(Cl)c2)CC1)C(=O)N[C@H](C=O)C[C@@H]1CCNC1=O` [Compound C45, 1-(3-Chlorobenzyl) cyclopropyl ((S)-4-methyl-1-oxo-1-(((S)-1-oxo-3-((S)-2-oxopyrrolidin-3-yl)propan-2-yl)amino)pentan-2-yl)carbamate] stands 304 nM; under `CCCCC[C@H](NC(=O)OC(c1ccccc1)C(C)(C)c1cccc(Cl)c1)C(=O)N[C@@H](C[C@@H]1CCNC1=O)C(=O)C(=O)NC1CC1` (stereo partly drawn) [Compound C289], 370 nM.
In the case of `CC(C)(c1cccc(Cl)c1)C(OC(=O)N[C@@H](CC1CCCCC1)C(=O)N[C@@H](C[C@@H]1CCNC1=O)C(=O)CO)c1ccccc1` (stereo partly drawn) [Compound C273], the IC50 stood at 5350 nM.
Under `CC(C)C[C@H](NC(=O)OC(C)(C)Cc1ccccc1)C(=O)N[C@@H](C[C@@H]1CCNC1=O)C(O)S(=O)(=O)O` (stereo partly drawn) [Compound C57, (2S)-1-hydroxy-2-((S)-4-methyl-2-((((2-methyl-1-phenylpropan-2-yl)oxy)carbonyl)amino)pentanamido)-3-((S)-2-oxopyrrolidin-3-yl)propane-1-sulfonate] stands 800 nM.
